Source: patent US20140243401A1, “METHODS OF SCREENING COMPOUNDS THAT ARE CYTOTOXIC TO TUMOR CELLS AND METHODS OF TREATING TUMOR CELLS USING SUCH COMPOUND” (The Johns Hopkins University, priority 2010, published 2014)
Values after ≈ are worked out from the molar mass of the structure shown.

Key:
[1] = system: mitochondrial FAS; test: 14C-malonate incorporation into mitochondrial fatty acids, mitochondria isolated from rat liver; assay type: biochemical; settings: FIG. 3
Description: Mammalian mitochondrial FAS activity may be determined in a variety of ways. For example, [14C]malonate may be added to isolated mitochondria, fatty acids are extracted, and then radioactivity is tested. (See Zhang et al., J. Bio. Chem. 278(41): 40067-40074, 2003; Mikolajczyk, J. and Brody, S., Eur. J. Biochem. 187: 431-437, 1990). The mitochondria are purified using methods known in the art. (See Qiagen's Qproteome Mitochondria Isolation Kit; Methods in Enzymology, Vol. 10, Chapter 11, 1967). To test the inhibition of mmFAS activity, a test compound is added to the reaction mixture. Therefore, a test compound may be screened according the methods described herein as follows: (i) isolating mitochondria; (ii) incubating mitochondria with [14C]malonate with and without a test compound; and (iii) determining the quantity of lipids and/or fatty acids produced. By comparing the amount of product in the presence of the test compound to the amount in its absence, the degree of inhibition can be determined.
Mitochondria from MCF7 cells were prepared following manufacturer's protocol (Mitochondria Isolation Kit, Sigma, Saint Louis, Mo.). Rat liver mitochondria were isolated by homogenization with a tissue homogenizer in H-medium (220 mM mannitol, 70 mM sucrose, 2 mM HEPES, and 0.5 g/L of fatty acid free bovine serum albumin, pH 7.4). The homogenate was centrifuged at 1100 g for 3 min and washed twice with H-medium. The supernatants were pooled and centrifuged at 6800 g for 15 min. The pellet was then rinsed again and centrifuged at 3000 g for 3 min. The mitochondria supernatants were saved. The sediments were resuspended in H-medium and centrifuged at 3000 g for 3 min. The mitochondria supernatants were combined and centrifuged at 20,000 g for 15 min. The resulting mitochondria pellet were rinsed and centrifuged again at 20,000 g for 20 min.
Isolated mitochondria (100-200 μg) were mixed with 50 mM TES-KOH (pH 7.2), 10 mM MgCl2, 0.3 M sorbitol, 0.1% BSA, 1 mM each of ATP, ADP, NADH, NADPH, CoA, DTT and 1 μCi of [2-^14C]malonic acid (50 mCi/mmol) in a total volume of 200 μl. The reaction was performed for 30 min at room temperature. C31, Riv7d or vehicle were added at the beginning of this reaction. At the end of 30 minutes, the mitochondria pellet was separated from supernatant by centrifugation at 14000 rpm for 5 min. After washing with 500 μl of 50 mM TES-KOH (pH 7.2) and 0.3 M sorbitol, the mitochondria were incubated in 200 μl of H2O and 20 μl of 10 M KOH for 15 min at 65° C. Then the samples were added with 40 μl of 5 M H2SO4 and 20 μl of 1 mM palmitic acid (in 1 M acetic acid in isopropanol). The ^14C labeled fatty acids were twice extracted with hexane and sent to scintillation counting after drying.

[2] = system: Human colon cancer (HCT116); test: XTT cytotoxicity assay, HCT116; assay type: cell-based; settings: for IC50: HCT-116; for CC50: HCT-116, read-out: LC50 (the source's name)
[3] = system: HCT116 human colon cancer xenograft; test: tumor xenograft size, HCT116; assay type: in vivo, Athymic Nude mice; settings: Study 101707, HCT-116, oral b.i.d. 16 days
Description: Xenograft studies were performed using various mmFAS inhibitors disclosed herein. Human cancer xenograft studies are known in the art. (See Pizer et al., Cancer Res. 56:1189-1193, 1996; Pizer et al., Cancer Res. 60: 213-218, 2000; Testa et al., Oncogene 24: 7455-7464, 2005).
In particular, C31 mouse efficacy studies were conducted in order to evaluate anti-neoplastic activity of C31 in vivo. Athymic Nude mice were implanted with HCT116 human colon, SKOV3 human ovarian or OVCAR3 human ovarian cancer cell lines and were treated when the grown tumor xenografts reached at least 150 to 200 mm^3.^1 ^1 Compounds were solubilized in TEP (80% polyethylene glycol (PEG) 400, 10% ethanol, 10% tween-80) in a volume of 50 μL.

[4] = system: Human ovarian cancer (OVCAR); test: XTT cytotoxicity assay, OVCAR; assay type: cell-based; settings: for CC50: read-out: LC50 (the source's name)
Description: (See, e.g., Rothman, S., J Clin. Pathol. 39: 672-676, 1986). For example, to measure the cytotoxicity of a test compound against cancer cells, cells (e.g., SKOV-3 cells or OVCAR-3) are plated in 96-well plates. Following overnight culture, the compound is added to the cells at specified concentrations. After 72 hours of incubation, cells are incubated for 4 hours with the XTT reagent as per manufacturer's instructions (Cell Proliferation Kit II (XTT) Roche Diagnostics, New Jersey), and the amount of color produced by viable cells is measured spectrophotometrically. […] is calculated by linear regression, plotting the color produced in treated cells as percent of control (untreated) cells versus drug concentrations.
(§1) Cytotoxicity can be easily measured using XTT assays, which provide an indication of mitochondrial activity. The XTT assay is a non-radioactive alternative for the [^51Cr] release cytotoxicity assay. XTT is a tetrazolium salt that is reduced to a formazan dye only by metabolically active, viable cells. The reduction of XTT is measured spectrophotometrically as OD490-OD650. Thus, cells that are actively metabolizing will form reaction product when subjected to XTT measurement.
(§2) For this experiment, cells were cultured under standard culture conditions. MCF7 human breast cancer cells were cultured in DMEM containing 5 mM glucose medium with 10% fetal calf serum, 0.01 mg/ml insulin and 1% penicillin/streptomycin. To measure the cytotoxicity of specific compounds against cancer cells, 9×10^3 MCF7 cells were plated per well in 96-well plates. Following overnight culture, the compounds, dissolved in DMSO, were added to the wells in 1 μl volume at specified concentrations. Vehicle controls were run for each experiment. Each condition was run in triplicate. After 24 to 72 h of incubation, cells were incubated for 4 hours with the XTT reagent as per manufacturer's instructions (Cell Proliferation Kit II (XTT) Roche Diagnostics, New Jersey). Plates were read at OD490 on a PerkinElmer Victor 1420. Three wells containing the XTT reagent without cells served as the plate blank. XTT data were reported as OD490.

[5] = system: MCF7 human breast cancer cells; test: XTT cytotoxicity assay, MCF7; assay type: cell-based; settings: Homo sapiens, MCF7, XTT, MCF-7; for CC50: read-out: LC50 (the source's name)
Description: as §1, §2
MCF7 human breast cancer cells were cultured in DMEM containing 1 mM or 5 mM glucose in the medium with 10% fetal calf serum, 0.01 mg/ml insulin and 1% penicillin/streptomycin. The cells were grown in two oxygen conditions, normoxia (21% 02) or hypoxia (1% 02). To measure the cytotoxicity of specific compounds against cancer cells, 9×10^3 MCF7 cells were plated per well in 96-well plates. Following overnight culture, the compounds, dissolved in DMSO, were added to the wells in 1 μl volume at specified concentrations. After 24 to 72 h of incubation, cells were incubated for 4 h with the XTT reagent as per manufacturer's instructions (Cell Proliferation Kit II (XTT) Roche Diagnostics, New Jersey). Plates were read at OD490 on a PerkinElmer Victor 1420. Three wells containing the XTT reagent without cells served as the plate blank. XTT data were reported as OD490Vehicle controls were run for each experiment. Each condition was run in triplicate.

[6] = system: SKOV3 human ovarian cancer cells; test: JC-1 staining, mitochondrial membrane potential in SKOV3 cells; assay type: cell-based; settings: SKOV3, drug in DMSO applied 30 min prior to staining
Text: JC-1 staining is an indicator of mitochondrial membrane potential; with this assay, mitochondria within cells stained with this fluorescent dye emit a wavelength in the red spectrum when mitochondrial membrane potential is intact. When mitochondria are depolarized, the wavelength of the spectrum emitted changes to green. Therefore, the ratio of red/green fluorescence will give an indication of the intactness of the membrane potential of mitochondria, and thus mitochondrial function.
The left panels show granular red-staining indicating mitochondria with intact membrane potential is brightest in control, and decreases with increasing concentrations of C31. Conversely, the right panels show the diffuse cytoplasmic green-staining which indicates mitochondrial depolarization, is dimmest in control and brightest at the highest concentration of C31 tested. Drug was solubilized in DMSO and applied for 30 min prior to staining.

[7] = system: MCF7 cells; test: 14C-acetate incorporation into lipids in MCF7 cells; assay type: cell-based, human; settings: Homo sapiens; MCF7 cells, second experiment
Description: (§3) MCF7 human breast cancer cells (a cell line which overexpresses FAS) were cultured in DMEM containing 5 mM glucose medium with 10% fetal calf serum, 0.01 mg/ml insulin and 1% penicillin/streptomycin. For measurement of fatty acid synthesis cells were cultured in 24-well plates at 5×10^4 per well and incubated overnight. Fatty acid synthesis was assayed by a 2 h pulse of [U^14C]acetate, 1 μCi/well, followed by Folch extraction and scintillation counting. Test compounds were added with the addition of drugs as described. Controls were treated with DMSO alone.
as §3, with “cells” for “cells (a cell line which overexpresses FAS)”, “containing 1 mM or” for “containing”, “glucose in the” for “glucose”, “penicillin/streptomycin. The cells were grown in two oxygen conditions, normoxia (21% 02) or hypoxia (1% 02).” for “penicillin/streptomycin.”, “counting” for “counting. Test compounds were added”

Oc1cc(Cl)ccc1Oc1ccc(Cl)cc1Cl [Triclosan, triclosan, reference compound]
IC50, inhibition of mitochondrial FAS (14C-malonate incorporation) ([1]; isolated mitochondria): 3 μg per mL
effect on 14C-malonate incorporation into mitochondrial fatty acids ([1]; mitochondria isolated from rat liver): inhibitory effect

CCCCCCCCC1(C)SC(=O)C=C1OCC(=O)Nc1ccc(OC(F)(F)F)cc1 (centres unmarked) [Compound C145]
IC50 [2]: 3.5 µg/mL (≈ 7.62 µM)
CC50 [2]: 7.6 µM
Average Tumor Size Endpoint (% Change) ([3]; 55 mg/kg): +236 % Change
IC50 [4]: 3.3 µg/mL (≈ 7.18 µM)
CC50 [4]: 7.2 µM
IC50 [5]: 1.8 µg/mL (≈ 3.92 µM)
CC50 [5]: 3.9 µM
mitochondrial depolarization (JC-1 staining) [6]: depolarization of the mitochondria in the SKOV3 human ovarian cancer cells which is dose-dependent
IC50 [7]: 17.8 µM

CCCCCCCCC1(C)SC(=O)C=C1OCC(=O)Nc1ccc(C(F)(F)F)cc1 (centres unmarked) [Compound C144]
IC50 [2]: 4.8 µg/mL (≈ 10.8 µM)
CC50 [2]: 10.8 µM
Average Tumor Size Endpoint (% Change) ([3]; 53 mg/kg): −91 % Change
IC50 [4]: 4 µg/mL (≈ 9.02 µM)
CC50 [4]: 9 µM
IC50 [5]: 2.2 µg/mL (≈ 4.96 µM)
CC50 [5]: 4.9 µM
mitochondrial depolarization (JC-1 staining) [6]: depolarization of the mitochondria in the SKOV3 human ovarian cancer cells which is dose-dependent
IC50 [7]: > 5.6 µM
